The values below come from PMC10835127, “Viruses traverse the human proteome through peptide interfaces that can be biomimetically leveraged for drug discovery” (Proceedings of the National Academy of Sciences of the …, 2024).

Converted amounts (≈) assume the structure as drawn. Where two headings read alike, the source gives them in different places.

For data set [1], the system named is diet-induced obese model of NASH. In words: NASH mouse model (AMLN diet-induced obese). The class given is in vivo, C57BL/6JRj mice. To be noted: oral, 8 wk; dEF3122 twice daily 7 or 20 mg/kg, OCA once daily 7 mg/kg; vs vehicle. The protocol: Fig. 6. Effect of the lead compound in a diet-induced obese model of NASH. Mice fed with a high fat, high fructose, and cholesterol supplemented diet for 38 wk were then treated in the last 8 wk with vehicle, dEF3122, or OCA (obeticholic acid) at indicated concentrations (n = 12 animals per group). (A and B) Histopathological mean score changes between the beginning and end of the treatment for liver portal inflammation (A) and liver portal fibrosis (B) are shown with representative stained liver sections of hematoxylin and eosin (H&E) and picrosirius red stains, respectively. (C–E) (C) Areas of kidney fibrosis at the end of the treatment are shown as % of the total area of the selected fields with representative sections of the kidney stained with picrosirius red. (D) % CD3 and (E) % F4/80 positive areas in kidneys with representative sections of CD3 and F4/80 immunostainings. *P < 0.05, **P < 0.01, and ***P < 0.001 from the T test with a preliminary nonsignificant Shapiro–Wilk test or from Wilcoxon signed–rank test otherwise.
Five-week-old male C57BL/6JRj mice were fed either chow diet or AMLN diet (40% total fat kcal of which 18.5% were trans-fat kcal, 20% fructose, and 2% cholesterol). This diet was maintained for 30 wk prior to study initiation. Three weeks prior to study initiation, liver biopsies were taken, and animals with steatosis grade <2 and fibrosis stage <1 were excluded from the study. Prior to the first administration of the test compound, stratified randomization of mice into treatment groups was performed according to collagen 1a1 (IHC) morphometry from the week 3 biopsies. Each treatment group consisted of 12 mice. For a total of 8 wk, compound dEF3122 was administered orally, twice daily at a concentration of 7 mg/kg or 20 mg/kg. OCA was administered orally, once daily at a concentration of 7 mg/kg. Animals were killed at the end of the treatment, and livers and kidneys were collected. […]
NASH histopathology and immunochemistry
Livers were fixed in 10 % neutral buffered formalin and paraffin-embedded; and sections were stained with H&E and picrosirius red to analyze their morphology. Histopathological analysis was performed by a pathologist blinded to the study. Fibrosis was evaluated by quantification of the picrosirius red positive areas. Inflammation was graded by counting the H&E positive inflammatory foci per field.
Kidneys were fixed in 4 % PFA and paraffin embedded. 4-μm sections were stained with picrosirius red. Images were acquired using a digital slide scanner (Nanozoomer S210 Digital Slide Scanner, Hamamatsu). Renal lesions were blindly examined by a renal pathologist. The extent of interstitial fibrosis was quantified using Image J software (NIH) on Sirius red scanned colored sections. In short, at least 20 random selected fields (original magnification, ×200) across the kidney cortex were analyzed per each kidney section, and the results were expressed as percentages of the total area of the selected fields.
For immunohistochemistry, 4-µm sections of paraffin-embedded kidneys were submitted for appropriate antigen retrieval by high pressure heating in a solution of Tris EDTA Tween or in a citrate solution. Then, sections were then incubated overnight at 4°C with the following antibodies: rabbit monoclonal anti-CD3 (Abcam, 1:100) and rat monoclonal anti- F4/80 (Biorad, 1:100). After washing, sections were incubated with appropriate amplification secondary antibody: biotin-coupled anti-rabbit (GE Healthcare) for CD3 and biotin-coupled anti-rat (Vector Laboratories) for F4/80, and then incubated with streptavidin coupled HRP (Southern). At the end, DAB (DAKO) staining was used to detect HRP. For quantification of CD3+ and F4/80+ renal cells, the degrees of cellular infiltrate were automatically quantified using ImageJ software (NIH) and expressed as a percentage of the surface area of the positive staining per field, in at least 10 random fields perp

The subject of data set [2] is influenza A H1N1 virus. As to the kind of experiment: microbe, parasite or virus in culture. To be noted: H1N1, A549, read-out: IC50 for the inhibition of influenza virus replication.
Data set [3] is described as follows: Kinetic solubility. The class given is physicochemical. To be noted: PBS pH 7.4 buffer, pH 7.4, aqueous buffer, kinetic from dmso stock. As for the experimental part:
10 mM DMSO Stock solutions of tested compounds were distributed into filtration plate (Multiscreen Durapore 0.45µm) containing PBS pH 7.4 buffer to a final maximum concentration of 130 μM (1.3 % DMSO/buffer). Solutions or suspensions were shaken for 30 min at room temperature. The samples were filtered under vacuum into a collection plate and diluted 50 % with ACN for UV analysis. Quantification was performed against a Reference plate containing the same tested compounds fully solubilized in ACN/PBS buffer 1:1. Reference and Sample plates were analyzed by UPLC/UV-MS using a generic UPLC method. […]

Data set [4] concerns EBV. To be noted: normalized mean of EBV replication readout.
Data set [5] deals with HCV replicon. The class given is cell-based. To be noted: normalized mean of HCV replicon readout.
In data set [6] the test system is influenza A H1N1 virus. To be noted: 48 hr post-treatment, A549.
Data set [7] concerns F. novicida (strain U112). Format: cell-based.
Data set [8] has as its system HIV1 strain NL4-3. The class given is cell-based. To be noted: normalized mean of HIV1 replication readout.

Turning to `CC[C@H]1[C@@H](O)[C@@H]2[C@H](CC[C@]3(C)[C@@H]([C@H](C)CCC(=O)O)CC[C@@H]23)[C@@]2(C)CC[C@@H](O)C[C@@H]12` [OCA, obeticholic acid, reference compound], in data set [1], the liver portal fibrosis entry is recorded as “significantly reduced portal fibrosis” and the liver portal inflammation entry was “failed to alleviate portal inflammation”.
In the case of `CCOC(=O)c1c(NC(=O)C2CCCCC2C(=O)O)sc2c1CCC(C(C)(C)C)C2` (stereo not shown) [dEF2586], in data set [2], the half-inhibitory concentration (IC50) was 3000 nM. Moreover, the solubility (kinetic) at 30 min in data set [3] was found to be 173 µM (≈ 75.4 µg/mL).
In the case of TIESEV [CPEP59], in data set [4], the “EBV Norm MEAN” value is 1.967. For the same compound, in data set [5], the “HCV Norm MEAN” value stood at 0.1611. The “Neuraminidase activity normalized to vehicle” value is 1,1965 in data set [6] (200 µM peptide); 1,1044 in data set [6] (0,823 µM peptide); 1,0974 in data set [6] (22,2 µM peptide); 1,0801 in data set [6] (2,4691 µM peptide); 1,0995 in data set [6] (7,4074 µM peptide); 1,0953 in data set [6] (66,6667 µM peptide). Further, in data set [7], the “Francisella novicida Norm AUC” value turned out to be 0.4462. Moreover, the “inhibition of PI incorporation in F. novicida infected BMDMs (in words)” value in data set [7] is given as “one of the most potent virus-derived peptides to inhibit PI incorporation”. The “HIV1 Norm MEAN” value in data set [8] is listed as 0.5804.
For the compound TRVESENKVVILDSFD [CPEP93], the “EBV Norm MEAN” value in data set [4] (peptide screen) stood at 1.069. Further, in data set [5] (peptide screen), the “HCV Norm MEAN” value was 0.8288. The “Neuraminidase activity normalized to vehicle” value in data set [6] (200 µM peptide) was 1,1147; in data set [6] (0,823 µM peptide), 1,1071; in data set [6] (22,2 µM peptide), 1,1929; in data set [6] (2,4691 µM peptide), 1,0829; in data set [6] (7,4074 µM peptide) it was 1,1322; in data set [6] (66,6667 µM peptide), 1,0883. Besides, the “Francisella novicida Norm AUC” value in data set [7] is 0.7068. Further, in data set [8] (peptide screen), the “HIV1 Norm MEAN” value came to 10.6718.
Take TYGTC [CPEP97]: the “EBV Norm MEAN” value in data set [4] was 1.147. The “HCV Norm MEAN” value in data set [5] is recorded as 0.1345. Moreover, the “Neuraminidase activity normalized to vehicle” value in data set [6] (200 µM peptide) is 0,8478; in data set [6] (0,823 µM peptide) it was 0,83; in data set [6] (22,2 µM peptide), 0,836; in data set [6] (2,4691 µM peptide), 0,6842; in data set [6] (7,4074 µM peptide), 0,8009; in data set [6] (66,6667 µM peptide) it was 0,8711. Moreover, the “Francisella novicida Norm AUC” value in data set [7] came to 0.4338. Moreover, the “HIV1 Norm MEAN” value in data set [8] is on record as 0.8497.
For the compound WGCSGKLICTTTVPW [CPEP84], in data set [4] (peptide screen), the “EBV Norm MEAN” value is 0.6808. In addition, in data set [5] (peptide screen), the “HCV Norm MEAN” value is on record as 0.9118. Moreover, the “Neuraminidase activity normalized to vehicle” value is 0,0819 in data set [6] (200 µM peptide); 0,9093 in data set [6] (0,823 µM peptide); 0,9299 in data set [6] (22,2 µM peptide); 0,9765 in data set [6] (2,4691 µM peptide); 0,9455 in data set [6] (7,4074 µM peptide); 0,3888 in data set [6] (66,6667 µM peptide). In addition, the “Francisella novicida Norm AUC” value in data set [7] was 1.224. Moreover, in data set [8] (peptide screen), the “HIV1 Norm MEAN” value worked out at 0.7328.
As to WKSKKTP [CPEP78], the “EBV Norm MEAN” value in data set [4] is 1.01. Further, the “HCV Norm MEAN” value in data set [5] turned out to be 0.1248. The “Neuraminidase activity normalized to vehicle” value in data set [6] (200 µM peptide) is listed as 0,663; in data set [6] (0,823 µM peptide), 0,9859; in data set [6] (22,2 µM peptide), 0,8841; in data set [6] (2,4691 µM peptide), 0,8283; in data set [6] (7,4074 µM peptide) it was 0,8644; in data set [6] (66,6667 µM peptide), 0,9037. For the same compound, in data set [7], the “Francisella novicida Norm AUC” value was 0.7597. Moreover, in data set [8], the “HIV1 Norm MEAN” value is reported as 1.618.
For the compound WRHRAR [CPEP113], the “EBV Norm MEAN” value in data set [4] worked out at 1.761. Besides, the “HCV Norm MEAN” value in data set [5] stood at 0.1192. The “Neuraminidase activity normalized to vehicle” value was 0,9723 in data set [6] (200 µM peptide); 0,965 in data set [6] (0,823 µM peptide); 0,979 in data set [6] (22,2 µM peptide); 0,9338 in data set [6] (2,4691 µM peptide); 0,9116 in data set [6] (7,4074 µM peptide); 1,0465 in data set [6] (66,6667 µM peptide). The “Francisella novicida Norm AUC” value in data set [7] came out at 0.358. In addition, the “inhibition of PI incorporation in F. novicida infected BMDMs (in words)” value in data set [7] is on record as “most”. Moreover, the “HIV1 Norm MEAN” value in data set [8] was 0.4362.
Consider YASIL [CPEP21], for which the “EBV Norm MEAN” value in data set [4] came to 1.459. Besides, in data set [5], the “HCV Norm MEAN” value stood at 0.1905. For the same compound, the “Neuraminidase activity normalized to vehicle” value is listed as 0,9829 in data set [6] (200 µM peptide); 0,8221 in data set [6] (0,823 µM peptide); 0,8963 in data set [6] (22,2 µM peptide); 0,8753 in data set [6] (2,4691 µM peptide); 0,7869 in data set [6] (7,4074 µM peptide); 1,0057 in data set [6] (66,6667 µM peptide). In addition, the “Francisella novicida Norm AUC” value in data set [7] is 0.5259. For the same compound, in data set [8], the “HIV1 Norm MEAN” value is given as 2.264.
As for YFADLLI [CPEP50], the “EBV Norm MEAN” value in data set [4] was 1.15. Besides, the “HCV Norm MEAN” value in data set [5] was found to be 0.09464. The “Neuraminidase activity normalized to vehicle” value in data set [6] (200 µM peptide) was 0,2471; in data set [6] (0,823 µM peptide), 0,883; in data set [6] (22,2 µM peptide), 0,8095; in data set [6] (2,4691 µM peptide), 0,771; in data set [6] (7,4074 µM peptide), 0,9007; in data set [6] (66,6667 µM peptide) it was 0,7183. Also, the “Francisella novicida Norm AUC” value in data set [7] came to 0.9176. Also, in data set [8], the “HIV1 Norm MEAN” value is on record as 1.681.
On to YLTDM [CPEP154], for which the “EBV Norm MEAN” value in data set [4] is 1.807. Besides, the “HCV Norm MEAN” value in data set [5] is recorded as 0.1792. In addition, the “Neuraminidase activity normalized to vehicle” value in data set [6] (200 µM peptide) was 1,0928; in data set [6] (0,823 µM peptide), 1,0316; in data set [6] (22,2 µM peptide) it was 1,0253; in data set [6] (2,4691 µM peptide) it was 0,9855; in data set [6] (7,4074 µM peptide), 1,0107; in data set [6] (66,6667 µM peptide), 1,0399. In addition, the “Francisella novicida Norm AUC” value in data set [7] was found to be 0.5909. Further, the “HIV1 Norm MEAN” value in data set [8] came out at 1.461.
Take YRHHY [CPEP48]: in data set [4], the “EBV Norm MEAN” value is reported as 1.742. Besides, the “HCV Norm MEAN” value in data set [5] was found to be 0.151. Besides, the “Neuraminidase activity normalized to vehicle” value in data set [6] (200 µM peptide) was 1,01; in data set [6] (0,823 µM peptide), 0,9611; in data set [6] (22,2 µM peptide) it was 1,0228; in data set [6] (2,4691 µM peptide) it was 0,8941; in data set [6] (7,4074 µM peptide) it was 0,9555; in data set [6] (66,6667 µM peptide) it was 1,0901. Also, the “Francisella novicida Norm AUC” value in data set [7] is 0.6002. Besides, the “HIV1 Norm MEAN” value in data set [8] turned out to be 1.395.

One may read the IC50 as the concentration needed to halve the response being measured. What is called solubility (kinetic) is solubility judged after dilution from a stock solution rather than from solid.
